Reference: patent US11160803B2, “Phthalazinone derivatives” (KUDOS PHARMACEUTICALS LIMITED, priority 2003, dated 2021)

Key:
[1] = system: Brca2-complemented derivative (VC8-BAC); experiment: Clonogenic survival, continuous exposure, Brca2-complemented VC8-BAC cells; format: cell-based, Chinese hamster; conditions: matched control VC8-BAC, clonogenic assay (FIG. 2)
[2] = system: Chinese hamster ovary cells deficient in Brca2 (VC8); experiment: Clonogenic survival, continuous exposure, Brca2 deficient VC8 cells; format: cell-based
[3] = system: Brca2 deficient (Cre24) ES cells; experiment: Clonogenic survival, continuous exposure, Brca2 deficient ES cells; format: cell-based; conditions: ratio of SF50 wild type / Brca2 deficient ES cells
Experimental: (§1) To assess the stand alone activity of a PARP inhibitor on Braca 1 and 2 deficient cells the following protocols were used.
(§2) Compound (4) was dissolved in DMSO at 10 mM and stored at −20° C. in the dark.
(§3) VC8 cells and the mouse Brca2 BAC complemented derivatives were as described in M. Kraakman-van der Zwet, et al., Mol Cell Biol 22, 669-79 (2002)). ES cells defective in Brca2 function have been described previously (Tutt, et al., EMBO Rep 3, 255-60 (2002)). The construction of ES cells defective in Brca1 will be described elsewhere but have previously been validated (Foray, et al., Embo J, 22, 2860-71 (2003)).
(§4) For measurement of cellular sensitivity to a PARP inhibitor (compound 4), cell cultures in exponential growth were trypsinised and seeded at various densities in 6-well plates onto Mitomycin C inactivated mouse embryonic fibroblasts and where appropriate treated with the test compound after 18 hours. For continuous exposure, cells were re-fed every 4 days with fresh medium and inhibitor. After 10-14 days, cells were washed with PBS, fixed in methanol and stained with crystal violet. Colonies containing greater than approximately 50 cells were counted. Experiments were performed at least three times in triplicate.

[4] = system: Brca1 deficient (Cre10) ES cells; experiment: Clonogenic survival, continuous exposure, Brca1 deficient ES cells; format: cell-based
Experimental: as §1, §2, §3, §4

[5] = system: Brca2 wild type (D3) ES cells; experiment: Clonogenic survival, continuous exposure, Brca2 wild type ES cells; format: cell-based; conditions: matched wild type cells (Brca2), clonogenic assay, continuous exposure (FIG. 1B)
Experimental: as §1, §2, §3, §4

[6] = system: Brca1 wild type (11CO) ES cells; experiment: Clonogenic survival, continuous exposure, Brca1 wild type ES cells; format: cell-based; conditions: matched wild type cells (Brca1), clonogenic assay, continuous exposure (FIG. 1A)
Experimental: as §1, §2, §3, §4

## O=C(c1cc(Cc2n[nH]c(=O)c3ccccc23)ccc1F)N1CCCNCC1 [compound 4, 4-[3-([1,4]diazepane-1-carbonyl)-4-fluorobenzyl]-2H-phthalazin-1-one]
[1]
  SF50 (dosage at which 50% of cells survived): 30 µM
[2]; Brca2 deficient VC8 line, clonogenic assay (FIG. 2)
  SF50 (dosage at which 50% of cells survived): 50 nM
[2]; ratio of SF50 VC8-BAC / VC8
  fold enhanced sensitivity of Brca2 mutant cells compared to wild type cells: 600 fold
[3]
  fold enhanced sensitivity of Brca2 mutant cells compared to wild type cells: 1,500 fold
[4]; cells deficient in Brca1, clonogenic assay, continuous exposure (FIG. 1A)
  SF50 (dosage at which 50% of cells survived): 15 nM
[4]; ratio of SF50 wild type / Brca1 deficient
  fold enhanced sensitivity of Brca1 mutant cells compared to wild type cells: 467 fold
[5]
  SF50 (dosage at which 50% of cells survived): 18 µM
[6]
  SF50 (dosage at which 50% of cells survived): 7 µM
